In patent US7855166B2, “Sulfonylamino(thio)carbonyl compounds” (Bayer Cropscience GmbH, priority 2005, dated 2010):

What was measured:
[1] = tested on: weed plants such as Sinapis alba, Echinochloa crus-galli, Lolium multiflorum, Chrysanthemum segetum, Setaria viridis, Abutilon theophrasti, Amaranthus …; assay: Post-emergence effect on weeds (greenhouse pot test, visual scoring); format: in vivo; details: applied post-emergence (three-leaf stage) at a rate of 0.3 kg or less of active substance per hectare; scored after about 3 to 4 weeks in comparison to untreated controls
[2] = tested on: weed plants such as Sinapis alba, Chrysanthemum segetum, Avena sativa, Stellaria media, Echinochloa crus-galli, Lolium multiflorum, Setaria viridis, Abutilon …; assay: Pre-emergence effect on weeds (greenhouse pot test, visual scoring); format: in vivo; details: applied pre-emergence at a rate of 0.3 kg or less of active substance per hectare; scored after 3 to 4 weeks in comparison to untreated controls

## CCCOc1nn(C(=O)NS(=O)(=O)c2c(I)cccc2SC)c(=O)n1C [Compound 1.581]
[1]
  herbicidal action against weed plants (effect scored visually): very good herbicidal action
[2]
  herbicidal action against weed plants (visual scoring of plant damage or emergence damage): very good herbidical action

## CSc1cccc(I)c1S(=O)(=O)NC(=O)n1nc(OC(C)C)n(C)c1=O [Compound 1.582]
[1]
  herbicidal action against weed plants (effect scored visually): very good herbicidal action
[2]
  herbicidal action against weed plants (visual scoring of plant damage or emergence damage): very good herbidical action

## COc1nn(C(=O)NS(=O)(=O)c2c(I)cccc2SC)c(=O)n1C1CC1 [Compound 1.584]
[1]
  herbicidal action against weed plants (effect scored visually): very good herbicidal action
[2]
  herbicidal action against weed plants (visual scoring of plant damage or emergence damage): very good herbidical action

## CCOc1nn(C(=O)NS(=O)(=O)c2c(I)cccc2SC)c(=O)n1C1CC1 [Compound 1.585]
[1]
  herbicidal action against weed plants (effect scored visually): very good herbicidal action
[2]
  herbicidal action against weed plants (visual scoring of plant damage or emergence damage): very good herbidical action

## CCCOc1nn(C(=O)NS(=O)(=O)c2c(I)cccc2SC)c(=O)n1C1CC1 [Compound 1.586]
[1]
  herbicidal action against weed plants (effect scored visually): very good herbicidal action
[2]
  herbicidal action against weed plants (visual scoring of plant damage or emergence damage): very good herbidical action

## COc1nn(C(=O)NS(=O)(=O)c2c(I)cccc2OS(C)(=O)=O)c(=O)n1C [Compound 1.711]
[1]
  herbicidal action against weed plants (effect scored visually): very good herbicidal action
[2]
  herbicidal action against weed plants (visual scoring of plant damage or emergence damage): very good herbidical action

## CCOc1nn(C(=O)NS(=O)(=O)c2c(I)cccc2OS(C)(=O)=O)c(=O)n1C [Compound 1.712]
[1]
  herbicidal action against weed plants (effect scored visually): very good herbicidal action
[2]
  herbicidal action against weed plants (visual scoring of plant damage or emergence damage): very good herbidical action

## CCCOc1nn(C(=O)NS(=O)(=O)c2c(I)cccc2OS(C)(=O)=O)c(=O)n1C [Compound 1.713]
[1]
  herbicidal action against weed plants (effect scored visually): very good herbicidal action
[2]
  herbicidal action against weed plants (visual scoring of plant damage or emergence damage): very good herbidical action

## COc1nn(C(=O)NS(=O)(=O)c2c(I)cccc2OS(C)(=O)=O)c(=O)n1C1CC1 [Compound 1.716]
[1]
  herbicidal action against weed plants (effect scored visually): very good herbicidal action
[2]
  herbicidal action against weed plants (visual scoring of plant damage or emergence damage): very good herbidical action

## CCOc1nn(C(=O)NS(=O)(=O)c2c(I)cccc2OS(C)(=O)=O)c(=O)n1C1CC1 [Compound 1.717]
[1]
  herbicidal action against weed plants (effect scored visually): very good herbicidal action
[2]
  herbicidal action against weed plants (visual scoring of plant damage or emergence damage): very good herbidical action

## CCCOc1nn(C(=O)NS(=O)(=O)c2c(I)cccc2OS(C)(=O)=O)c(=O)n1C1CC1 [Compound 1.718]
[1]
  herbicidal action against weed plants (effect scored visually): very good herbicidal action
[2]
  herbicidal action against weed plants (visual scoring of plant damage or emergence damage): very good herbidical action

## COc1nn(C(=O)NS(=O)(=O)c2c(I)cccc2OS(=O)(=O)N(C)C)c(=O)n1C [Compound 1.749]
[1]
  herbicidal action against weed plants (effect scored visually): very good herbicidal action
[2]
  herbicidal action against weed plants (visual scoring of plant damage or emergence damage): very good herbidical action

## CCCOc1nn(C(=O)NS(=O)(=O)c2c(I)cccc2OS(=O)(=O)N(C)C)c(=O)n1C [Compound 1.751]
[1]
  herbicidal action against weed plants (effect scored visually): very good herbicidal action
[2]
  herbicidal action against weed plants (visual scoring of plant damage or emergence damage): very good herbidical action

## CC(C)Oc1nn(C(=O)NS(=O)(=O)c2c(I)cccc2OS(=O)(=O)N(C)C)c(=O)n1C [Compound 1.752]
[1]
  herbicidal action against weed plants (effect scored visually): very good herbicidal action
[2]
  herbicidal action against weed plants (visual scoring of plant damage or emergence damage): very good herbidical action

## COc1nn(C(=O)NS(=O)(=O)c2c(I)cccc2OS(=O)(=O)N(C)C)c(=O)n1C1CC1 [Compound 1.754]
[1]
  herbicidal action against weed plants (effect scored visually): very good herbicidal action
[2]
  herbicidal action against weed plants (visual scoring of plant damage or emergence damage): very good herbidical action

## CCOc1nn(C(=O)NS(=O)(=O)c2c(I)cccc2OS(=O)(=O)N(C)C)c(=O)n1C1CC1 [Compound 1.755]
[1]
  herbicidal action against weed plants (effect scored visually): very good herbicidal action
[2]
  herbicidal action against weed plants (visual scoring of plant damage or emergence damage): very good herbidical action

## CCCOc1nn(C(=O)NS(=O)(=O)c2c(I)cccc2OS(=O)(=O)N(C)C)c(=O)n1C1CC1 [Compound 1.756]
[1]
  herbicidal action against weed plants (effect scored visually): very good herbicidal action
[2]
  herbicidal action against weed plants (visual scoring of plant damage or emergence damage): very good herbidical action

## Cc1cccc(I)c1S(=O)(=O)NC(=O)n1nc(C2CC2)n(C2CC2)c1=O [Compound 1.815]
[1]
  herbicidal action against weed plants (effect scored visually): very good herbicidal action
[2]
  herbicidal action against weed plants (visual scoring of plant damage or emergence damage): very good herbidical action

## COc1ccc(Cl)c(I)c1S(=O)(=O)NC(=O)n1nc(OC)n(C)c1=O [Compound 1.816]
[1]
  herbicidal action against weed plants (effect scored visually): very good herbicidal action
[2]
  herbicidal action against weed plants (visual scoring of plant damage or emergence damage): very good herbidical action

## CCOc1nn(C(=O)NS(=O)(=O)c2c(OC)ccc(Cl)c2I)c(=O)n1C [Compound 1.817]
[1]
  herbicidal action against weed plants (effect scored visually): very good herbicidal action
[2]
  herbicidal action against weed plants (visual scoring of plant damage or emergence damage): very good herbidical action

## CCCOc1nn(C(=O)NS(=O)(=O)c2c(OC)ccc(Cl)c2I)c(=O)n1C [Compound 1.818]
[1]
  herbicidal action against weed plants (effect scored visually): very good herbicidal action
[2]
  herbicidal action against weed plants (visual scoring of plant damage or emergence damage): very good herbidical action

## COc1ccc(Cl)c(I)c1S(=O)(=O)NC(=O)n1nc(OC(C)C)n(C)c1=O [Compound 1.819]
[1]
  herbicidal action against weed plants (effect scored visually): very good herbicidal action
[2]
  herbicidal action against weed plants (visual scoring of plant damage or emergence damage): very good herbidical action

## COc1ccc(Cl)c(I)c1S(=O)(=O)NC(=O)n1nc(OC)n(C2CC2)c1=O [Compound 1.820]
[1]
  herbicidal action against weed plants (effect scored visually): very good herbicidal action
[2]
  herbicidal action against weed plants (visual scoring of plant damage or emergence damage): very good herbidical action

## CCCOc1nn(C(=O)NS(=O)(=O)c2c(OC)ccc(Cl)c2I)c(=O)n1C1CC1 [Compound 1.822]
[1]
  herbicidal action against weed plants (effect scored visually): very good herbicidal action
[2]
  herbicidal action against weed plants (visual scoring of plant damage or emergence damage): very good herbidical action

## COc1nn(C(=O)NS(=O)(=O)c2ccc(F)cc2I)c(=O)n1C [Compound 1.823]
[1]
  herbicidal action against weed plants (effect scored visually): very good herbicidal action
[2]
  herbicidal action against weed plants (visual scoring of plant damage or emergence damage): very good herbidical action

## CCCOc1nn(C(=O)NS(=O)(=O)c2ccc(F)cc2I)c(=O)n1C [Compound 1.824]
[1]
  herbicidal action against weed plants (effect scored visually): very good herbicidal action
[2]
  herbicidal action against weed plants (visual scoring of plant damage or emergence damage): very good herbidical action

## COc1nn(C(=O)NS(=O)(=O)c2ccc(F)cc2I)c(=O)n1C1CC1 [Compound 1.825]
[1]
  herbicidal action against weed plants (effect scored visually): very good herbicidal action
[2]
  herbicidal action against weed plants (visual scoring of plant damage or emergence damage): very good herbidical action

## CCCOc1nn(C(=O)NS(=O)(=O)c2ccc(F)cc2I)c(=O)n1C1CC1 [Compound 1.827]
[1]
  herbicidal action against weed plants (effect scored visually): very good herbicidal action
[2]
  herbicidal action against weed plants (visual scoring of plant damage or emergence damage): very good herbidical action

## COc1nn(C(=O)NS(=O)(=O)c2cccc(Cl)c2I)c(=O)n1C [Compound 1.828]
[1]
  herbicidal action against weed plants (effect scored visually): very good herbicidal action
[2]
  herbicidal action against weed plants (visual scoring of plant damage or emergence damage): very good herbidical action

## CCOc1nn(C(=O)NS(=O)(=O)c2cccc(Cl)c2I)c(=O)n1C [Compound 1.829]
[1]
  herbicidal action against weed plants (effect scored visually): very good herbicidal action
[2]
  herbicidal action against weed plants (visual scoring of plant damage or emergence damage): very good herbidical action

## CCCOc1nn(C(=O)NS(=O)(=O)c2cccc(Cl)c2I)c(=O)n1C [Compound 1.830]
[1]
  herbicidal action against weed plants (effect scored visually): very good herbicidal action
[2]
  herbicidal action against weed plants (visual scoring of plant damage or emergence damage): very good herbidical action

## CC(C)Oc1nn(C(=O)NS(=O)(=O)c2cccc(Cl)c2I)c(=O)n1C [Compound 1.831]
[1]
  herbicidal action against weed plants (effect scored visually): very good herbicidal action
[2]
  herbicidal action against weed plants (visual scoring of plant damage or emergence damage): very good herbidical action

## COc1nn(C(=O)NS(=O)(=O)c2cccc(Cl)c2I)c(=O)n1C1CC1 [Compound 1.832]
[1]
  herbicidal action against weed plants (effect scored visually): very good herbicidal action
[2]
  herbicidal action against weed plants (visual scoring of plant damage or emergence damage): very good herbidical action

## CCOc1nn(C(=O)NS(=O)(=O)c2cccc(Cl)c2I)c(=O)n1C1CC1 [Compound 1.833]
[1]
  herbicidal action against weed plants (effect scored visually): very good herbicidal action
[2]
  herbicidal action against weed plants (visual scoring of plant damage or emergence damage): very good herbidical action

## CCCOc1nn(C(=O)NS(=O)(=O)c2cccc(Cl)c2I)c(=O)n1C1CC1 [Compound 1.834]
[1]
  herbicidal action against weed plants (effect scored visually): very good herbicidal action
[2]
  herbicidal action against weed plants (visual scoring of plant damage or emergence damage): very good herbidical action

## COc1nn(C(=O)NS(=O)(=O)c2cc(C(F)(F)F)ccc2I)c(=O)n1C [Compound 1.835]
[1]
  herbicidal action against weed plants (effect scored visually): very good herbicidal action
[2]
  herbicidal action against weed plants (visual scoring of plant damage or emergence damage): very good herbidical action

## CCOc1nn(C(=O)NS(=O)(=O)c2cc(C(F)(F)F)ccc2I)c(=O)n1C [Compound 1.836]
[1]
  herbicidal action against weed plants (effect scored visually): very good herbicidal action
[2]
  herbicidal action against weed plants (visual scoring of plant damage or emergence damage): very good herbidical action

## CCCOc1nn(C(=O)NS(=O)(=O)c2cc(C(F)(F)F)ccc2I)c(=O)n1C [Compound 1.837]
[1]
  herbicidal action against weed plants (effect scored visually): very good herbicidal action
[2]
  herbicidal action against weed plants (visual scoring of plant damage or emergence damage): very good herbidical action
